How the values were obtained:
[1] = Particle size and polydispersity index (Zetasizer Nano ZS); format: physicochemical
From the text: Nanoparticle compositions may be characterized by a variety of methods. For example, microscopy (e.g., transmission electron microscopy or scanning electron microscopy) may be used to examine the morphology and size distribution of a nanoparticle composition. Dynamic light scattering or potentiometry (e.g., potentiometric titrations) may be used to measure zeta potentials. Dynamic light scattering may also be utilized to determine particle sizes. Instruments such as the Zetasizer Nano ZS (Malvern Instruments Ltd, Malvern, Worcestershire, UK) may also be used to measure multiple characteristics of a nanoparticle composition, such as particle size, polydispersity index, and zeta potential.
A Zetasizer Nano ZS (Malvern Instruments Ltd, Malvern, Worcestershire, UK) can be used to determine the particle size, the polydispersity index (PDI) and the zeta potential of the nanoparticle compositions in 1×PBS in determining particle size and 15 mM PBS in determining zeta potential.

[2] = test system: luciferase (Luc) mRNA expression; experiment: Luc expression (AUC) in CD-1 mice relative to MC3; format: in vivo; settings: Luc expression relative to MC3, CD-1 mice
Description: FIG. 15 is a graph summarizing luciferase expression levels at 6 h after administration of nanoparticle compositions containing compounds of the disclosure to CD-1 mice at a dose of 0.5 mpk. Total light flux values were acquired via body luminescent imaging (BLI) 6 h after administration. In this Figure, the numbers 1-7 and 10 refer to the compositions containing Compounds 4-10 and MC3 respectively.
In contrast, hEPO expression in rats induced by administration of nanoparticle composition including compound according to one of formulae (I), (Ia1)-(Ia6), (Ib), (II), (IIa), (III), and (IIIa) was substantially lower than that measured for MC3. […] Table 7c and 7d show additional protein expressions and clearance data from compositions with various compounds disclosed herein as compared to with MC3.

[3] = test system: luciferase (Luc) mRNA expression; experiment: Expression of Luc, bioluminescence (total flux) after intravenous administration to mice; format: in vivo; settings: for Total flux (Luc expression), comparison in words over the time points of the table named: mice i.v. 0.5 mg/kg, 3, 6, 24 hours
Description: In order to monitor how effectively various nanoparticle compositions deliver therapeutic and/or prophylactic agents to targeted cells, different nanoparticle compositions including a particular therapeutic and/or prophylactic agent (for example, a modified or naturally occurring RNA such as an mRNA) are prepared and administered to rodent populations. Mice are intravenously, intramuscularly, intraarterially, or intratumorally administered a single dose including a nanoparticle composition with a formulation such as those provided in Table 1. In some instances, mice may be made to inhale doses. Dose sizes may range from 0.001 mg/kg to 10 mg/kg, where 10 mg/kg describes a dose including 10 mg of a therapeutic and/or prophylactic agent in a nanoparticle composition for each 1 kg of body mass of the mouse. A control composition including PBS may also be employed.
Upon administration of nanoparticle compositions to mice, dose delivery profiles, dose responses, and toxicity of particular formulations and doses thereof can be measured by enzyme-linked immunosorbent assays (ELISA), bioluminescent imaging, or other methods. For nanoparticle compositions including mRNA, time courses of protein expression can also be evaluated. Samples collected from the rodents for evaluation may include blood, sera, and tissue (for example, muscle tissue from the site of an intramuscular injection and internal tissue); sample collection may involve sacrifice of the animals.
The efficacy of the nanoparticle compositions presented in Tables 1, la, 17-1, 19-1, 20-1 and 21-1 was evaluated with a bioluminescence study. Formulations were administered intravenously to mice (n=6) at a dosage of 0.5 mg/kg (mpk) and bioluminescence measured at 3, 6, and 24 hour time points. The standard MC3 formulation and a PBS control were evaluated for comparison.

hEPO mRNA expression [4] = experiment: Expression of hEPO in mice (CD-1); format: in vivo, CD-1 mice; settings: Table 7e; hEPO expression, CD-1 mice, 0.5 mpk
From the text: FIG. 12 is a set of graphs illustrating hEPO expression levels in CD-1 mice dosed with compounds of the disclosure, compared to MC3. PBS is used as control. […] In graphs A-C numbers 1-14 refer to compositions containing the following: 1: Compound 73, 2: Compound 80, 3: Compound 70; 4: Compound 81; 5: Compound 69; 6: Compound 82; 7: Compound 83; 8: Compound 62; 9: Compound 84; 10: Compound 85; 11: Compound 86; 12: Compound 87; 13: MC3; 14: PBS.
FIG. 13 is a graph showing hEPO levels (pg/mL) in CD-1 mice up to −25 h after administration of a nanoparticle composition containing compounds of the disclosure, compared to a composition containing MC3. Numbers 1-13 refer to compositions containing the following: 1: Compound 73, 2: Compound 80, 3: Compound 70; 4: Compound 81; 5: Compound 69; 6: Compound 82; 7: Compound 83; 8: Compound 62; 9: Compound 84; 10: Compound 85; 11: Compound 86; 12: Compound 87; 13: MC3. […]

hEPO mRNA expression [5] = experiment: Expression of hEPO after intravenous administration to rats; format: in vivo; settings: rats i.v.; 3, 6, 24 hours
Description: PBS (phosphate buffered saline) is used as control.
Formulations were prepared according to Table 5 and included mRNA encoding hEPO.
[…] After the 48 hour time point, livers and spleens were harvested and frozen.

Structure (SMILES) | Lipid/MC3 AUC (hEPO mRNA expression [4]) | further results
CCCCCCCCCCCCN(CCCCCCCCCCCC)CCN(CCCCCCCCCCCC)CCN1CCN(CCN(CCCCCC(=O)OCCCCC)CCCCCC(=O)OCCCCC)CC1 [Compound 14, Dipentyl 6,6′-((2-(4-(2-((2-(didodecylamino)ethyl)(dodecyl)amino)ethyl)piperazin-1-yl)ethyl)azanediyl)dihexanoate] | – | PDI ([1]; Table 1, DOPE 40:20:38.5:1.5, Luc mRNA): 0.008; Lipid/MC3 Luc CD-1 (mice) [2]: 0.070; Luc expression in mice compared with MC3 (Table 7a) ([3]; mice, in words): significantly lower
CCCCCCCCCN(CCCCCCCCC)CCN(CCCCCCCCC)CC(=O)N1CCC(CN(CCCCCCCCC)CCCCCCCCC)C1 (stereo not shown) [Compound 70, 2-((2-(Dinonylamino)ethyl)(nonyl)amino)-1-(3-((dinonylamino)methyl)pyrrolidin-1-yl)ethan-1-one] | 1.77 | –
CCCCCCCCCN(CCCCCCCCC)CCC1CCN(C(=O)CN(CCCCCCCCC)CCN(CCCCCCCCC)CCCCCCCCC)C1 (stereo not shown) [Compound 69, 2-((2-(Dinonylamino)ethyl)(nonyl)amino)-1-(3-(2-(dinonylamino)ethyl)pyrrolidin-1-yl)ethan-1-one] | 6.52 | –
CCCCCCCCCN(CCCCCCCCC)CCCC1CCN(C(=O)CCN(CCCCCCCCC)CCN(CCCCCCCCC)CCCCCCCCC)CC1 [Compound 85, 3-((2-(Dinonylamino)ethyl)(nonyl)amino)-1-(4-(3-(dinonylamino)propyl)piperidin-1-yl)propan-1-one] | 3.54 | –
CCCCCCCCCCCCN(CCCCCCCCCCCC)CCN1CCNCC1 [Compound 19-2, N-Dodecyl-N-(2-(piperazin-1-yl)ethyl)dodecan-1-amine] | – | Total flux (Luc expression), comparison in words over the time points of the table named [3]: lowest total flux
CCCCCCCCCN(CCCC(=O)OCCCCC)CCC1CCN(C(=O)CN(CCCCCCCCC)CCN(CCCCCCCCC)CCCCCCCCC)C1 (stereo not shown) [Compound 81, Pentyl 4-((2-(1-(N-(2-(dinonylamino)ethyl)-N-nonylglycyl)pyrrolidin-3-yl)ethyl)(nonyl)amino)butanoate] | 3.01 | –
CCCCCCCCCN(CCCCCCCCC)CCN(CCCCCCCCC)CC(=O)N1CCC(CN(CCCCCCCCC)CCCC(=O)OCCCCC)C1 (stereo not shown) [Compound 82, Pentyl 4-(((1-(N-(2-(dinonylamino)ethyl)-N-nonylglycyl)pyrrolidin-3-yl)methyl)(nonyl)amino)butanoate] | 3.62 | –
CCCCCCCCCCCCN(CCCCCCCCCCCC)CCN(CCCCCCCCCCCC)CCN1CCN(CCN(CCCCCCCCCCCC(=O)OC)CCCCCCCCCCCC(=O)OC)CC1 [Compound 16, Dimethyl 12,12′-((2-(4-(2-((2-(didodecylamino)ethyl)(dodecyl)amino)ethyl)piperazin-1-yl)ethyl)azanediyl)didodecanoate] | – | PDI ([1]; formulated with hEPO mRNA): 0.140; hEPO expression at each time point, comparison in words (Table 6) (hEPO mRNA expression [5]): lowest hEPO expression
CCCCCCCCCN(CCCC(=O)OCCCCC)CCC1CCN(C(=O)CN(CCCCCCCCC)CCN(CCCCCCCCC)CCCCCCCCC)CC1 [Compound 83, Pentyl 4-((2-(1-(N-(2-(dinonylamino)ethyl)-N-nonylglycyl)piperidin-4-yl)ethyl)(nonyl)amino)butanoate] | 1.46 | –
CCCCCCCCCN(CCCC(=O)OCCCCC)CCCC1CCN(C(=O)CCN(CCCCCCCCC)CCN(CCCCCCCCC)CCCCCCCCC)CC1 [Compound 84, Pentyl 4-((3-(1-(3-((2-(dinonylamino)ethyl)(nonyl)amino)propanoyl)piperidin-4-yl)propyl)(nonyl)amino)butanoate] | 1.43 | –
CCCCCCCCCCCCN(CCCCCCCCCCCC)CCN1CCN(Cc2ccc(OC)cc2)CC1 [Compound 19-5, N-Dodecyl-N-(2-(4-(4-methoxybenzyl)piperazin-1-yl)ethyl)dodecan-1-amine] | – | Total flux (Luc expression), comparison in words over the time points of the table named [3]: next highest flux
CCCCCCCC/C=C\CCCCCCCCN(CCO)CCCCCCCC/C=C\CCCCCCCC [Compound 17-8, 2-(Di((Z)-octadec-9-en-1-yl)amino)ethan-1-ol] | – | Total flux (Luc expression), comparison in words over the time points of the table named [3]: substantially higher flux than compositions including Compounds 17-2, 17-3, and 17-7
CCCCCCCCCN(CCCC(=O)OCCCCC)CCC(=O)N1CCN(C(=O)CCN(CCCCCCCCC)CCN(CCCCCCCCC)CCCCCCCCC)CC1 [Compound 62, Pentyl 4-((3-(4-(3-((2-(dinonylamino)ethyl)(nonyl)amino)propanoyl)piperazin-1-yl)-3-oxopropyl)(nonyl)amino)butanoate] | 0.97 | –
CCCCC/C=C\C/C=C\CCCCCCCCN(CCO)CCCCCCCCCCCC [Compound 17-4, 2-(Dodecyl((9Z,12Z)-octadeca-9,12-dien-1-yl)amino)ethan-1-ol] | – | Total flux (Luc expression), comparison in words over the time points of the table named [3]: substantially higher flux than compositions including Compounds 17-2, 17-3, and 17-7
CCCCC/C=C\C/C=C\CCCCCCCCN(CCCCCCCC/C=C\C/C=C\CCCCC)CCN1CCN(CCCCCCCCCCCC)CC1 [Compound 19-6, (9Z,12Z)—N-(2-(4-Dodecylpiperazin-1-yl)ethyl)-N-((9Z,12Z)-octadeca-9,12-dien-1-yl)octadeca-9,12-dien-1-amine] | – | Total flux (Luc expression), comparison in words over the time points of the table named [3]: next highest flux
CCCCCCCCCN(CCCC(=O)OCCCCC)CCC1CCCN(C(=O)CN(CCCCCCCCC)CCN(CCCCCCCCC)CCCCCCCCC)C1 (stereo not shown) [Compound 80, Pentyl 4-((2-(1-(N-(2-(dinonylamino)ethyl)-N-nonylglycyl)piperidin-3-yl)ethyl)(nonyl)amino)butanoate] | 1.74 | –
CCCCCCCCCN(CCCOC(=O)CCCCC)CCC(=O)N1CCN(C(=O)CCN(CCCCCCCCC)CCN(CCCCCCCCC)CCCCCCCCC)CC1 [Compound 86, 3-((3-(4-(3-((2-(Dinonylamino)ethyl)(nonyl)amino)propanoyl)piperazin-1-yl)-3-oxopropyl)(nonyl)amino)propyl Hexanoate] | 0.49 | –
CCCCCCCCCN(CCCCCCCCC)CCC1CCCN(C(=O)CN(CCCCCCCCC)CCN(CCCCCCCCC)CCCCCCCCC)C1 (stereo not shown) [Compound 73, 2-((2-(Dinonylamino)ethyl)(nonyl)amino)-1-(3-(2-(dinonylamino)ethyl)piperidin-1-yl)ethan-1-one] | 3.93 | –
CCCCCCCCCN(CCCOC(=O)CCCCC)CCCC1CCN(C(=O)CCN(CCCCCCCCC)CCN(CCCCCCCCC)CCCCCCCCC)CC1 [Compound 87, 3-((3-(1-(3-((2-(Dinonylamino)ethyl)(nonyl)amino)propanoyl)piperidin-4-yl)propyl)(nonyl)amino)propyl hexanoate] | 0.80 | –

Reference: patent US12396961B2, “Compounds and compositions for intracellular delivery of agents” (ModernaTX, Inc., priority 2015, dated 2025)
